# Assay results taken from patent US7078403B1, “Antiviral agents” (Biota Scientific Management Pty Ltd., priority 1999, dated 2006).
# What was measured:
# [1] = tested on: HRV type 1A; assay: Inhibition of viral cytopathic effect (CPE), visual scoring or neutral red, HRV type 1A in MRC-5 cells; assay type: cell-based, human rhinovirus; settings: for Activity on Rhinovirus Type 1A EC50: HRV type 1A in MRC-5 cells, CPE inhibition; for Activity on Rhinovirus Type 1A SI: selectivity index = CC50 or MTC divided by EC50, HRV type 1A, MRC-5 cells
# [2] = tested on: HRV type 2; assay: Inhibition of viral cytopathic effect (CPE), visual scoring or neutral red, HRV type 2 in KB cells; assay type: cell-based, human rhinovirus; settings: for Activity on Rhinovirus Type 2 EC50: HRV type 2 in KB cells, CPE inhibition; for Activity on Rhinovirus Type 2 SI: selectivity index = CC50 or MTC divided by EC50, HRV type 2, KB cells
# [3] = tested on: human embryo lung (MRC-5) cells; assay: Cytotoxicity (CC50 or MTC) in uninfected MRC-5 cells; settings: unit not given
# [4] = tested on: Rhinovirus Type 14; assay type: cell-based, human rhinovirus; settings: HRV-14
SMILES,Activity on Rhinovirus Type 1A EC50 [1],Activity on Rhinovirus Type 1A SI [1],Activity on Rhinovirus Type 2 EC50 [2],Activity on Rhinovirus Type 2 SI [2],Activity on Rhinovirus Type 1A MTC [3],Activity on Rhinovirus Type 14 EC50 [4]
CCON=C(C)c1ccc(OCCC2CCN(c3ccc(C)nn3)CC2)cc1 [Compound 4],0.39 µg/mL,25.55,0.5 µg/mL,>2,10.00,
CCON=C(C)c1cc(OC)c(OCCC2CCN(c3ccc(Cl)nn3)CC2)c(OC)c1 [Compound 6],0.06 µg/mL,>167.09,0.1 µg/mL,>500,>10.00,
CON=C(C)c1ccc(OCCC2CCN(c3ccc(C)nn3)CC2)cc1 [Compound 9],<0.0032 µg/mL,>312,0.08 µg/mL,>13,>1,
CCC(=NOC)c1ccc(OCCC2CCN(c3ccc(Cl)nn3)CC2)cc1 [Compound 10],0.0142 µg/mL,>70.54,0.4 µg/mL,>3,>1,
CC(C)ON=Cc1ccc(OCCC2CCN(c3ccc(Cl)nn3)CC2)cc1 [Compound 12],0.00355 µg/mL,>273.7,0.02 µg/mL,50,>1,
N#CCON=Cc1ccc(OCCC2CCN(c3ccc(Cl)nn3)CC2)cc1 [Compound 14],<0.0032 µg/mL,>312,0.046 µg/mL,13,>1,
Clc1ccc(N2CCC(CCOc3ccc(C=NOCc4ccccc4)cc3)CC2)nn1 [Compound 15],>1.0 µg/mL,,0.9 µg/mL,<1,>1.0,
CON=Cc1cccc(OCCC2CCN(c3ccc(Cl)nn3)CC2)c1 [Compound 16],<0.0032 µg/mL,>312,<0.001 µg/mL,>1000,>1,
CON=Cc1ccc(OC)c(OCCC2CCN(c3ccc(Cl)nn3)CC2)c1 [Compound 17],0.00612 µg/mL,>163.2,>1 µg/mL,,>1,
CON=C(C)c1ccc(OCCC2CCN(c3ccc(Cl)nn3)CC2)c(OC)c1 [Compound 19],<0.0032 µg/mL,>312,0.019 µg/mL,>53,>1,
CCOCCOCCON=Cc1ccc(OCCC2CCN(c3ccc(Cl)nn3)CC2)cc1 [Compound 20],3.28 µg/mL,>15.24,3 µg/mL,1,>50.00,
CCON=Cc1ccc(OCCC2CCN(c3ccc(OCC(F)(F)F)nn3)CC2)cc1 [Compound 21],>1 µg/mL,,0.3 µg/mL,>3,>1,
CON=Cc1cc(C)c(OCCCc2cc(C)no2)c(C)c1 [Compound 22],<0.16 µg/mL,>320,<0.05 µg/mL,>400,36.0,
C=CCON=Cc1cc(C)c(OCCCc2cc(C)no2)c(C)c1 [Compound 23],<0.16 µg/mL,>320,<0.05 µg/mL,>340,>50,
Cc1cc(CCCOc2c(C)cc(C=NOCc3ccccc3)cc2C)on1 [Compound 25],0.36 µg/mL,>139.4,0.5 µg/mL,34,>50,
CCON=Cc1ccc(OCCC2CCN(c3ccc(OC)nn3)CC2)cc1 [Compound 26],0.077 µg/mL,>13.0,0.16 µg/mL,>6,>1,
CCON=Cc1ccc(OCCN2CCN(c3ccc(Cl)nn3)CC2)cc1 [Compound 27],0.017 µg/mL,>59.6,0.1 µg/mL,>10,>1,
CCON=Cc1ccc(OCC2CCCN(c3ccc(Cl)nn3)C2)cc1 (stereo not shown) [Compound 28],0.180 µg/mL,>5.5,0.06 µg/mL,>17,>1,
CCON=Cc1ccc(OCC2CCN(c3ccc(Cl)nn3)CC2)cc1 [Compound 31],0.017 µg/mL,>59.6,0.003 µg/mL,>333,>1,
CCON=Cc1ccc(OCCCC2CCN(c3ccc(Cl)nn3)CC2)cc1 [Compound 32],0.222 µg/mL,>4.5,0.014 µg/mL,>70,>1,

SMILES,Activity on Rhinovirus Type 1A EC50 [1],Activity on Rhinovirus Type 1A SI [1],Activity on Rhinovirus Type 2 EC50 [2],Activity on Rhinovirus Type 2 SI [2],Activity on Rhinovirus Type 1A MTC [3],Activity on Rhinovirus Type 14 EC50 [4]
CCON=C(CC)c1ccc(OCCC2CCN(c3ccc(Cl)nn3)CC2)cc1 [Compound 34],0.627 µg/mL,>1.59,0.7 µg/mL,>1,>1,
CCON=Cc1ccc(OCCC2CCN(c3ccc(Cl)nn3)CC2)c([N+](=O)[O-])c1 [Compound 36],0.009 µg/mL,99.4,0.03 µg/mL,>33,0.89,
CCON=Cc1ccc(OCCC2CCN(c3ccc(Cl)nn3)CC2)cc1O [Compound 37],0.010 µg/mL,>96.0,0.048 µg/mL,>21,>1,
C=CCON=Cc1cc(O)cc(OCCC2CCN(c3ccc(Cl)nn3)CC2)c1 [Compound 40],0.583 µg/mL,>1.72,0.4 µg/mL,>3,>1,
CCON=Cc1cccc(OCCC2CCN(c3ccc(Cl)nn3)CC2)c1 [Compound 41],0.016 µg/mL,>63.5,<0.001 µg/mL,>1000,>1,
C=CCON=Cc1ccc(OCCC2CCN(c3ccc(Cl)nn3)CC2)c(C)c1 [Compound 43],0.006 µg/mL,>170,0.01 µg/mL,>100,>1,
CCON=Cc1cc(C)c(OCCC2CCN(c3ccc(Cl)nn3)CC2)c(C)c1 [Compound 45],0.029 µg/mL,>34.0,0.03 µg/mL,>32,>1,
CCON=Cc1ccc(OCCC2CCN(c3ccc(Cl)nn3)CC2)cc1 [Compound 57],0.001 µg/mL,>56.3,0.00025 µg/mL,>400,>0.1,
CCON=Cc1ccc(OCCCc2cc(C)no2)cc1 [Compound 108],>1 µg/mL,,0.6 µg/mL,>1,>1,
CCON=Cc1ccc(OCCC2CCN(c3nnc(C(F)(F)F)s3)CC2)cc1 [Compound 154],,,,,,0.0514 µg/mL
CCON=Cc1ccc(OCCC2CCN(c3cnc(Cl)cn3)CC2)cc1 [Compound 160],,,,,,0.0502 µg/mL
CCO/N=C/c1c(C)cc(OCCC2CCN(c3ccc(C)nn3)CC2)cc1C [Compound 185],,,,,,0.0697 µg/mL
CO/N=C/c1c(C)cc(OCCC2CCN(c3ccc(C)nn3)CC2)cc1C [Compound 186],,,,,,0.0349 µg/mL
CCO/N=C/c1ccc(OCCC2CCN(c3ccc(C)nn3)CC2)cc1OC [Compound 187],,,,,,0.0103 µg/mL
CCO/N=C/c1ccc(OCCC2CCN(c3ccc(C)nn3)CC2)cc1C [Compound 188],,,,,,0.0032 µg/mL
CO/N=C/c1ccc(OCCC2CCN(c3ccc(C)nn3)CC2)cc1C [Compound 189],,,,,,0.0011 µg/mL
CCON=Cc1cc(C)c(OCCC2CCN(c3ccc(C)nn3)CC2)cc1C [Compound 190],,,,,,0.0593 µg/mL
CON=Cc1cc(C)c(OCCC2CCN(c3ccc(C)nn3)CC2)cc1C [Compound 191],,,,,,0.0256 µg/mL
CCON=Cc1ccc(OCCC2CCN(c3ccc(C)nn3)CC2)c(C)c1C [Compound 192],,,,,,0.0258 µg/mL
